According to patent US9844599B2, “Nitric oxide releasing produgs of therapeutic agents” (priority 2013, dated 2017):
Entries after “also recorded” stand apart in the source; their conditions may differ. Where two headings read alike, the source gives them in different places.

Experiments:
[1] = Stability of prodrugs / release of parent drug in Simulated Gastric Fluid (SGF); type: in vitro ADME
Protocol: SGF was prepared according to the procedure described in Test Solution—USP. Thus, 0.2 g of sodium chloride and 0.32 g of purified pepsin (Sigma, derived from porcine stomach mucosa with an activity of 800 to 2500 units per mg of protein) were dissolved in 0.7 mL of hydrochloric acid and sufficient water to make 100 mL. This test solution has a pH of about 1.2 and was utilized for in-vitro studies.
The solution of the test compound in acetonitrile (10 μL of […] solution) was dissolved in 990 μL of biological fluid (SGF/SIF/Human Plasma). The resulting reaction mixtures were incubated at 37° C. At specified time intervals, aliquots (60 μL) were withdrawn and added to acetonitrile (200 μL) and mixed well by vortexing for 2 minutes. The mixture was centrifuged at 13000 rpm for 15 min at 4° C., and the supernatant analyzed by HPLC. The amounts (area percentages) of the remaining intact prodrug (if any) and the released metabolite(s) were estimated by HPLC.
This was performed by using HPLC instrument (Waters alliance), pump 2695, and PDA detector 2996 with the following chromatographic parameters: Wavelength −210 nm; Column-Waters X-Terra RP-18, 150×3.9 mm, 5 μm; Injection volume, 25 μL; Run time, 13 min. Mode of operation was linear gradient with mobile phase A: Acetonitrile and B: 0.1% TFA in water (filtered and degassed). Flow rate was 1.0 mL/min at 25° C.

[2] = system: serum thromboxane B2 (TXB2) formation; assay: Inhibition of serum thromboxane B2 (TXB2) formation; type: in vivo, Sprague-Dawley (SD) rats; conditions: Rattus norvegicus, po, 168 h; SD rats, 30 mg/kg aspirin or equimolar 44.82 mg/kg, o.d., 7 days
Protocol: Aspirin is used as an antiplatelet agent for the treatment of cardiovascular complications. […] It is therefore possible to achieve complete suppression of platelet. TXA2 (and also TXB2) formation via chronic administration of aspirin at a dose of 30 mg/daily (Patrignani, P., et al. J. Clin. Invest. 1982, 69, 1366-1372). The antiplatelet activity of aspirin (30 mg/kg) and its prodrug I-D1-R1 (at a dose equimolar to 30 mg/kg dose of aspirin) was evaluated in Sprague-Dawley (SD) rats through estimation of serum TXB2 levels (Esser, R. et al., Br. J. Pharmacol. 2006, 144, 538-550) and the experimental results are presented in FIG. 7.
In vivo TXB2 inhibition potential of aspirin and NO-aspirin prodrugs was assessed in Sprague-Dawley (SD) rats; the serum TXB2 levels were estimated according to the reported procedure (R. Esser, R., et al., Br. J. Pharmacol. 2006, 144, 538-550). Thus, vehicle, aspirin (30 mg/kg) or aspirin prodrug I-D1-R1 (44.82 mg/kg which is equivalent to 30 mg/kg dose of aspirin) were administered orally to the overnight fasted SD rats. […] The serum TXB2 concentrations were determined by enzyme immunoassay (EIA) using commercially available TXB2 estimation kit (Cayman Chemicals, USA), according to the method described in kit information booklet.

[3] = Stability of prodrugs at RT and at 50° C. (capped vials); type: physicochemical
[4] = Acute gastric ulcerogenesis activity study; conditions: rats, acute oral; aspirin 100 mg/kg, I-D1-R1 298.85 mg/kg, naproxen 100 mg/kg, I-D2-R1 138.67 mg/kg
Protocol: The animals were sacrificed after 5 h of drug administration. The stomachs of the treated animals were separated, perfused with 2% formalin (10 mL), and a large curvature was excised. The severity of the mucosal damage was assessed on the basis of the size of the observed ulcer lesions in the images captured using a stereomicroscope attached to a digital camera (Stemi 2000, Zeiss, Germany). The Image Pro Plus software (version 5.1) was used to quantify the hemorrhagic/ulcer lesions in pixels and to convert them into mm^2. The total area of lesions was calculated for each treatment group and the measure of gastric ulcers (Mean±SEM) (mm^2) was estimated (FIGS. 5 and 6).

[5] = simulated gi fluid, 0 h, 1 µM, pH 1.2
[6] = simulated gi fluid, 5 min, 1 µM, pH 1.2
[7] = simulated gi fluid, 10 min, 1 µM, pH 1.2
[8] = simulated gi fluid, 0.5 h, 1 µM, pH 1.2
[9] = simulated gi fluid, 1 h, 1 µM, pH 1.2
[10] = simulated gi fluid, 2 h, 1 µM, pH 1.2
[11] = simulated gi fluid, 3 h, 1 µM, pH 1.2
[12] = simulated gi fluid, 1 µM, pH 1.2

## CC(=O)Oc1ccccc1C(=O)O [Aspirin, aspirin, reference compound]
[1]; 1 µM, pH 1.2
  AUC of aspirin (released / remaining) in SGF: 12348 µM·h
[2]
  inhibition at 30 mg/kg: 76%

## COc1ccc2cc([C@H](C)C(=O)OC(C)O[N+](=O)[O-])ccc2c1 (stereo partly drawn) [I-D2-R1, (2S)-1-(nitrooxy)ethyl 2-(6-methoxynaphthalen-2-yl)propanoate]
[3]; 50° C., 0 h
  Nap (Naproxen) formed on storage: NIL
  Prodrug (area %) on storage: 99.12%
[3]; 50° C., 25 d
  Nap (Naproxen) formed on storage: 0.33%
  Prodrug (area %) on storage: 99.00%
[3]; RT, 0 h
  Nap (Naproxen) formed on storage: NIL
  Prodrug (area %) on storage: 99.12%
[3]; RT, 25 d
  Nap (Naproxen) formed on storage: 0.2%
  Prodrug (area %) on storage: 98.87%
[3]; both at RT and at 50° C., up to 25 days
  Stability on storage (in words): remained stable
[4]
  Development of gastric ulcers or lesions: none of the animals
[1]
  Release of parent drug on incubation in SGF (in words): released quantitative amounts of the parent drug, naproxen
[1]; [5]
  Prodrug Remaining (%): 100.00%
[1]; [6]
  Prodrug Remaining (%): 84.68%
[1]; [7]
  Prodrug Remaining (%): 74.58%
[1]; [8]
  Prodrug Remaining (%): 32.79%
[1]; [9]
  Prodrug Remaining (%): 0.00%
[1]; [10]
  Prodrug Remaining (%): 0.00%
[1]; [11]
  Prodrug Remaining (%): 0.00%
other
  melting point: 69 to 71 °C

## CCC(OC(=O)[C@@H](C)c1ccc2cc(OC)ccc2c1)O[N+](=O)[O-] (stereo partly drawn) [I-D2-R2, (2S)-1-(nitrooxy)propyl 2-(6-methoxynaphthalen-2-yl)propanoate]
[1]
  Release of parent drug on incubation in SGF (in words): released naproxen
[1]; [5]
  Prodrug Remaining (%): 100%
[1]; [12]
  t1/2 of prodrug in SGF: ~1 h
[1]; [6]
  Prodrug Remaining (%): 94.33%
[1]; [7]
  Prodrug Remaining (%): 90.43%
[1]; [8]
  Prodrug Remaining (%): 62.15%
[1]; [9]
  Prodrug Remaining (%): 51.01%
[1]; [10]
  Prodrug Remaining (%): 39.08%
[1]; [11]
  Prodrug Remaining (%): 6.77%

## CCCC(OC(=O)[C@@H](C)c1ccc2cc(OC)ccc2c1)O[N+](=O)[O-] (stereo partly drawn) [I-D2-R3, (2S)-1-(nitrooxy)butyl 2-(6-methoxynaphthalen-2-yl)propanoate]
[1]
  Release of parent drug on incubation in SGF (in words): released naproxen
[1]; [5]
  Prodrug Remaining (%): 100%
[1]; [12]
  t1/2 of prodrug in SGF: ~2.5 h
[1]; [6]
  Prodrug Remaining (%): 96.35%
[1]; [7]
  Prodrug Remaining (%): 93.61%
[1]; [8]
  Prodrug Remaining (%): 82.73%
[1]; [9]
  Prodrug Remaining (%): 75.48%
[1]; [10]
  Prodrug Remaining (%): 57.55%
[1]; [11]
  Prodrug Remaining (%): 39.00%

## CCCCC(OC(=O)[C@@H](C)c1ccc2cc(OC)ccc2c1)O[N+](=O)[O-] (stereo partly drawn) [I-D2-R4, (2S)-1-(nitrooxy)pentyl 2-(6-methoxynaphthalen-2-yl)propanoate]
[1]
  Release of parent drug on incubation in SGF (in words): released appreciable amounts of the parent drug naproxen
[1]; [5]
  Prodrug Remaining (%): 100%
[1]; [12]
  t1/2 of prodrug in SGF: >3 h
[1]; [6]
  Prodrug Remaining (%): 97.74%
[1]; [7]
  Prodrug Remaining (%): 96.18%
[1]; [8]
  Prodrug Remaining (%): 90.53%
[1]; [9]
  Prodrug Remaining (%): 88.87%
[1]; [10]
  Prodrug Remaining (%): 79.97%
[1]; [11]
  Prodrug Remaining (%): 71.04%

## CC(OC(=O)CCCc1ccc(N(CCCl)CCCl)cc1)O[N+](=O)[O-] (stereo not shown) [I-D3-R1, 1-(nitrooxy)ethyl 4-(4-(bis(2-chloroethyl)amino)phenyl)butanoate]
[1]; SGF, 0 min
  Prodrug Remaining (%): 92.12%
[1]; SGF, 5 min
  Prodrug Remaining (%): 20.49%
[1]; SGF, 10 min
  Prodrug Remaining (%): 13.84%
[1]; SGF, 15 min
  Prodrug Remaining (%): 8.59%
[1]; SGF, 30 min
  Prodrug Remaining (%): 0.00%
[1]; SGF, 60 min
  Prodrug Remaining (%): 0.00%
[1]; SGF, 120 min
  Prodrug Remaining (%): 0.00%
[1]; SGF, 180 min
  Prodrug Remaining (%): 0.00%
[1]; SGF, whole time course
  Release of parent drug on incubation in SGF (in words): quantitative release of the parent drug, chlorambucil; also recorded: released its parent drug chlorambucil quantitatively
[1]; simulated gi fluid, pH 1.2, SGF, read-out: t1/2 of prodrug in SGF
  half-life at 1 µM: < 5 min

## CC(=O)Oc1ccccc1C(=O)Oc1cccc(CO[N+](=O)[O-])c1 [II-D1-X1, reference compound]
[1]
  Fate of prodrug on incubation in SGF (in words): remained intact
[1]; [5]
  % of Prodrug remaining (μM): 100.00%
[1]; [6]
  % of Prodrug remaining (μM): 100.00%
[1]; [7]
  % of Prodrug remaining (μM): 100.00%
[1]; [8]
  % of Prodrug remaining (μM): 100.00%
[1]; [9]
  % of Prodrug remaining (μM): 100.00%
[1]; [10]
  % of Prodrug remaining (μM): 100.00%

## COc1ccc2cc([C@H](C)C(=O)OCCO[N+](=O)[O-])ccc2c1 [II-D2-X2, reference compound]
[1]
  Fate of prodrug on incubation in SGF (in words): remained intact
  Release of parent drug on incubation in SGF (in words): no release of parent drug naproxen
[1]; [5]
  Prodrug Remaining (%): 100.00%
[1]; [6]
  Prodrug Remaining (%): 99.68%
[1]; [7]
  Prodrug Remaining (%): 99.79%
[1]; [8]
  Prodrug Remaining (%): 99.75%
[1]; [9]
  Prodrug Remaining (%): 99.67%
[1]; [10]
  Prodrug Remaining (%): 99.39%
[1]; [11]
  Prodrug Remaining (%): 99.19%

## COc1ccc2cc([C@H](C)C(=O)OCCCO[N+](=O)[O-])ccc2c1 [II-D2-X3, reference compound]
[1]; [5]
  Prodrug Remaining (%): 100.00%
[1]; [6]
  Prodrug Remaining (%): 100.00%
[1]; [7]
  Prodrug Remaining (%): 100.00%
[1]; [8]
  Prodrug Remaining (%): 100.00%
[1]; [9]
  Prodrug Remaining (%): 100.00%
[1]; [10]
  Prodrug Remaining (%): 100.00%
[1]; [11]
  Prodrug Remaining (%): 100.00%

## COc1ccc2cc([C@H](C)C(=O)OCCCCO[N+](=O)[O-])ccc2c1 [II-D2-X4, reference compound]
[1]; [5]
  Prodrug Remaining (%): 100.00%
[1]; [6]
  Prodrug Remaining (%): 100.00%
[1]; [7]
  Prodrug Remaining (%): 100.00%
[1]; [8]
  Prodrug Remaining (%): 100.00%
[1]; [9]
  Prodrug Remaining (%): 100.00%
[1]; [10]
  Prodrug Remaining (%): 100.00%
[1]; [11]
  Prodrug Remaining (%): 100.00%
